Consider three molecules from paper PMC2362691, “A phase I study of the lipophilic thymidylate synthase inhibitor Thymitaq™ (nolatrexed dihydrochloride) given by 10-day oral administration” (British Journal of Cancer, 1999).

On the set-up of data set [1]: method as in Jodrell et al, 1991. The following applies: ref Jodrell et al, 1991; cited from earlier work.
Details of data set [2]: method as in earlier work. As to conditions: clinical trial, ref Calvert et al, 1986, 1987, Bassendine et al, Cantwell et al, 1988; cited from earlier work.
The nature of data set [3]: Phase I study of 10-day oral nolatrexed (6 hourly, every 21 days): toxicity by CTC grade. The following applies: 6 hourly for 10 days, repeated at 3-weekly intervals (143 mg m-2 every 6 h).
For data set [4] the following is noted: rats fasted before treatment, introduction, no reference given, cited from earlier work.
For data set [5] the following is noted: cited from earlier work.
In another data set the test system is thymidylate synthase. Put plainly: Plasma deoxyuridine (dUrd) concentrations, pretreatment vs day 10. It counts as in vivo, cancer patients.
Details of data set [6]: method as in Rafi et al, 1995. As to conditions: continuous 24-h infusion, ref Rafi et al, 1995, cited from earlier work.
The conditions of data set [7]: no reference given, cited from earlier work; for bioavailability of proposed clinical formulation: capsules with microcrystalline cellulose and crospovidone, dosing preceded and followed by water gavage.
The conditions of data set [8]: in vivo.
For data set [9] the following is noted: cited from earlier work. The source holds these as a separate data set.
Details of data set [10]: method as in Rafi et al, 1996. The following applies: patients, 5-day oral administration; ref Rafi et al, 1996; cited from earlier work.
Where [11] appears, read: 10-day intravenous infusion, 716 mg m-2 day-1, ref Creaven et al (1998).
Where [12] appears, read: 5-day intravenous infusion, ref Rafi et al, 1998.

Molecules are shown by their SMILES. Several values for one entry are separate records, joined by “and”; a condition that tells them apart may be missing. Equal entries are not always repeated. Where two headings read alike, the source gives them in different places.

On to `Cc1nc2ccc(CN(C)c3ccc(C(=O)N[C@@H](CCC(=O)O)C(=O)O)s3)cc2c(=O)[nH]1` [raltitrexed], for which the nephrotoxicity entry in data set [1] is given as “non-nephrotoxic”.
On to `C#CCN(Cc1ccc2nc(N)[nH]c(=O)c2c1)c1ccc(C(=O)N[C@@H](CCC(=O)O)C(=O)O)cc1` [CB 3717, N10-propargyl-5,8-dideazafolic acid], for which the “toxicity that led to abandoned development” value in data set [2] was “sporadic and unpredictable nephrotoxicity and myelotoxicity”.
As to `Cc1ccc2nc(N)[nH]c(=O)c2c1Sc1ccncc1.Cl.Cl` [nolatrexed, 2-Amino-3,4-dihydro-6-methyl-4-oxo-5-(4-pyridylthio)-quinazoline dihydrochloride], where the note is “human, in vivo”, the “patients who achieved disease stabilization” value is listed as “three”. Further, the “patients with progressive disease on treatment” value (ten out of 23 patients had evaluable disease) is “seven”. This molecule also had a maximum tolerated dose in data set [3] of 572 mg m-2 day-1. Besides, the oral bioavailability in data set [4] (20 mg kg-1 (120 mg m-2)) is recorded as 53%. In addition, the oral bioavailability in data set [4] (40 mg kg-1 (240 mg m-2)) is listed as 50%. Besides, the oral bioavailability in data set [4] (80 mg kg-1 (480 mg m-2)) is 30%. Besides, in data set [5] (setting [11]), the “patients who completed the dose level” value was “zero out of three” and the “patients with grade 4 myelosuppression” value was “two out of three”. Also, the “patients with dose-limiting myelosupression” value in data set [5] (in vivo, iv) is given as “one out of four”. Moreover, the “elevation in plasma dUrd compared with baseline” value with thymidylate synthase (429 mg m-2 day-1, in three out of four patients with data) is more than 75%. Also, the “rise of plasma dUrd concentration, median” value with thymidylate synthase (day 10 vs pretreatment, 12 out of 23 patients, all dose levels) was 90 % of baseline. In addition, the systemic toxicity entry in [6] (maximum dose administered 1073 mg m-2) is listed as “no systemic toxicity”. Moreover, the “local toxicity (phlebitis), CTC grade” value in data set [6] is reported as 2 CTC grade. The “bioavailability of proposed clinical formulation” value in [7] (one dog) is 70% and 107%. For the same molecule, the “bioavailability of proposed clinical formulation” value in [7] (second dog) was 87%. Also, the bioavailability in data set [7] (dogs fasted overnight, in 5% dextrose by gavage, introduction) is reported as more than 90%. For the same molecule, the “dose level that could be considered for phase II testing” value in [8] (human, 10 days) was 429 mg m-2 day-1. Also, in data set [8] (human, po, 10 days), the “doses at which thrombocytopenia (grade 1 or 2) occurred” value was not below 318 mg m^−2day^−1. For the same molecule, in data set [8], the “additional patients with increased sensitivity to sunlight, no apparent rash” value is “five”; the “patients with elevation of serum bilirubin” value is reported as “nine”; the “patients with skin rash” value was “eight”. In addition, the “duration of partial response” value in data set [9] (5-day intravenous infusion, one patient with metastatic colorectal cancer, ref Rafi et al, 1998) was 3 months. In addition, in [9] (setting [12]), the dose-limiting toxicity entry is given as “neutropenia”, the maximum tolerated dose is given as 904 mg m-2 day-1 and the “recommended phase II dose” value was 800 mg m-2 day-1. Also, the clearance entry in data set [9] (supported by median trough values of this study, ref Rafi et al (1998)) is on record as “dose dependent”. Further, the oral bioavailability in [10] is 70–100%.

As usually defined, the bioavailability is dose-corrected exposure relative to a reference, in per cent.
